Source: publication PMC10135263 (Antibiotics, 2023)

How the values were obtained:
[1] = Difference of pharmacokinetic parameters between intravenous microdialysis and standard plasma sampling; details: intravenous microdialysis minus standard plasma, mean (95% confidence interval)
Method: (§1) For the data analysis, the microdialysate concentrations were attributed to the midpoint of the sampling interval. The pharmacokinetic parameters and statistical analysis were performed using STATA (v. 17.0 StataCorp, College Station, TX, USA) for continuous intravenous microdialysis samples and standard plasma samples separately. […] AUC was calculated using the linear-up/log-down method. Cmax was calculated as the maximum of all the concentrations and Tmax as the time to reach Cmax. For comparison between the two sampling methods, the difference of pharmakokinetic parameters between methods is calculated including 95% confidence intervals. The Kenward–Roger approximation method was used due to small sample size, as a correction for degrees of freedom. Model assumptions were tested by visual diagnosis of residuals, fitted values, and estimates of random effects.

[2] = Pharmacokinetics from standard plasma sampling (central venous catheter), free unbound concentrations; details: vancomycin 1 g iv infused over 100 min, co-administered with meropenem, eight female pigs, standard plasma samples, mean (95% confidence interval)
Excerpt: (§2) Eight female pigs, Danish Landrace Breed, weight 78–82 kg, were included. […] Intravenous microdialysis catheters were inserted into the left subclavian vein, guided by ultrasound and using a peripheral venous introducer. On the opposite side of the throat, a central venous catheter was placed for standard plasma sampling (Figure 3). At the end of the sampling period, all pigs were euthanized by intravenous injection of pentobarbital.
After placement, the intravenous microdialysis catheters were perfused with 0.9% NaCl followed by a 20 min tissue equilibrium period. […] Dialysates were collected during an 8 h sampling period every 30 min from time 0 to 240 min and every 60 min from time 240 to 480 min, resulting in 12 dialysates per pig. Plasma samples, each containing approximately 4 mL, were collected from the central venous catheter in the middle of every dialysate sampling interval to EDTA tubes. […] After a 30 min equilibrium period, one calibration sample was collected over a 40 min interval. Collected plasma samples were stored at 5 °C for a maximum of 6 h before being centrifuged at 3000× g for 10 min. Dialysates and plasma samples were frozen at −80 °C until analysis.
The principle of this analysis is that (in competition) the free drug competes with a drug–enzyme conjugate for the antibody (File S1). […] Meropenem was quantified using ultra-high-performance liquid chromatography (UHPLC). Quantification was performed after ultrafiltration of the plasma samples using a centrifree ultrafiltration device with a nominal molecular weight limit of 30 kDa (Millipore). Some 5 µL of the filtrate was prepared for analysis.
as §1

[3] = Pharmacokinetics from continuous intravenous microdialysis sampling (subclavian vein), free unbound concentrations; details: vancomycin 1 g iv infused over 100 min, co-administered with meropenem, eight female pigs, mean (95% confidence interval)
Method: In the microdialysis system, complete equilibrium will not occur across the semipermeable membrane, due to the constant flow. As such, the obtained concentration in the dialysates represents a fraction of the actual concentration. This fraction is referred to as the relative recovery, and it is essential to calculate to determine the absolute concentration of an analyte. In this study, calibration using retrodialysis by drug was used. Relative recovery was calculated by the following equation:(1) Relative recovery %=100 ·1−Cdialysate/Cperfusate
(2) Cplasma=100 ·Cdialysate/Relative recovery %
All the microdialysis equipment was acquired from M Dialysis AB (Stockholm, Sweden), and consisted of 67 Intravenous Microdialysis Catheters with a membrane length of 30 mm, a 20 kD cut-off, and 107 Microdialysis pumps set at a flow rate of 1 μL/min.
as §2
After placement, the intravenous microdialysis catheters were perfused with 0.9% NaCl followed by a 20 min tissue equilibrium period. […]
A 3 µL sample volume was introduced into the UHPLC system with a C18 column and further analyzed with mass spectrometry. […]
For the data analysis, the microdialysate concentrations were attributed to the midpoint of the sampling interval. […] AUC was calculated using the linear-up/log-down method. Cmax was calculated as the maximum of all the concentrations and Tmax as the time to reach Cmax. For comparison between the two sampling methods, the difference of pharmakokinetic parameters between methods is calculated including 95% confidence intervals. […]

Structure (SMILES): C[C@@H](O)[C@H]1C(=O)N2C(C(=O)O)=C(S[C@@H]3CN[C@H](C(=O)N(C)C)C3)[C@H](C)[C@H]12 [Meropenem, meropenem]
- Tmax, difference between methods ([1]; meropenem): 5 (−8; 18) min

Structure (SMILES): CN[C@H](CC(C)C)C(=O)N[C@H]1C(=O)N[C@@H](CC(N)=O)C(=O)N[C@H]2C(=O)N[C@H]3C(=O)N[C@H](C(=O)N[C@H](C(=O)O)c4cc(O)cc(O)c4-c4cc3ccc4O)[C@H](O)c3ccc(c(Cl)c3)Oc3cc2cc(c3O[C@@H]2O[C@H](CO)[C@@H](O)[C@H](O)[C@H]2O[C@H]2C[C@](C)(N)[C@H](O)[C@H](C)O2)Oc2ccc(cc2Cl)[C@H]1O [Vancomycin, vancomycin]
- Cmax ([2]; homogeneous enzyme immunoassay): 36 (24; 49) µg/mL
- AUC0–8h ([2]; homogeneous enzyme immunoassay, non-compartmental): 7014 (5779; 8249) min µg/mL
- T1/2 [2]: 197 (124; 270) min
- Tmax [2]: 85 (72; 98) min
- T1/2, difference between methods ([1]; vancomycin): 45 (−55; 146) min
- Tmax, difference between methods ([1]; vancomycin): 25 (4.3; 46) min
- Tmax ([3]; intravenous microdialysis samples, concentrations attributed to midpoint of sampling interval): 110 (97; 123) min
- T1/2 ([3]; intravenous microdialysis samples): 242 (162; 322) min
- Cmax ([3]; intravenous microdialysis, 1 μL/min, UHPLC-MS/MS, recovery-corrected): 14 (2; 26) µg/mL
